This note sets out measurements from US7964556B1, “Antimicrobial peptides and use thereof” (Toagosei Co., Ltd, priority 2004, dated 2011).

For one test, the system named is Staphylococcus aureus. Type of test: cell-based. The settings on record: for antimicrobial activities against gram-positive bacteria (S. aureus), in words: summary of Table 2. As for the experimental part: (§1) Regarding the antimicrobial peptide in samples 1 to 14 and the comparative sample 1, the antimicrobial activities (minimum inhibitory concentration: MIC) with respect to gram-negative bacteria (Escherichia coli) and gram-positive bacteria (Staphylococcus aureus) were determined, as described below, by a liquid medium dilution technique using a 96-well microplate. First, a drug (synthesized peptide) solution having a concentration of 40 times of the highest test concentration was prepared using sterile distilled water, and thereafter liquid-bouillon mediums (“NUTRIENT BROTH Dehydrated” manufactured by DIFCO) having peptide concentrations of 200, 100, 50, 25, 12.5, 6.25, 3.13, 1.56 and 0.78 μM were produced respectively. The produced liquid-bouillon mediums including the peptide of each concentration were then fed to the 96-well microplate at 100 μL a time.
(§2) At the same time, test bacteria cultured for 18 hours at 37° C. on an agar plate (“Muller Hinton Agar” manufactured by DIFCO) were gathered by scratching with a loop, and then suspended in a sterilized physiological saline. Bacterial suspension 5 μL prepared at an equivalent of 2×10^7 cells/mL was respectively inoculated (number of bacteria to be tested: approximately 1×10^6 cells/mL) onto the above-described liquid-bouillon mediums including the peptide of each concentration and fed to each well of the above-described microplate. After inoculation, the microplate was then incubated in an incubator at 37° C., and the presence of bacteria was evaluated based on the turbidity 24 hours later. The minimum drug concentration (peptide concentration), in which an increased in turbidity caused by bacteria was not detected at the time of measurement, was defined as MIC (minimum inhibitory concentration) (unit: μM) in the present embodiment.

The subject of a further test is Escherichia coli. It counts as cell-based. As for the experimental part: as §1, §2
The mark [1] stands for this setting: liquid-bouillon medium (Nutrient Broth), 37° C., turbidity after 24 hours.

Where two headings read alike, the source gives them in different places. Where a SMILES comes first, the peptide text is derived from it.

In the case of `CC(C)C[C@H](NC(=O)[C@H](CCCNC(=N)N)NC(=O)[C@H](CCC(=O)O)NC(=O)[C@H](CC(C)C)NC(=O)[C@@H]1CCCN1C(=O)[C@@H]1CCCN1C(=O)[C@@H](N)CC(C)C)C(=O)N[C@H](C(=O)N[C@@H](CC(C)C)C(=O)N[C@@H](CC(=O)O)C(N)=O)[C@@H](C)O` [Comparative Sample 1, LPPLERLTLD, reference compound] (H-LPPLERLTLD-NH2), in the test with Staphylococcus aureus (setting [1]), the “Antimicrobial Activities (MIC) S. aureus” value was more than 200 µM. Further, the “antimicrobial activities against gram-positive bacteria (S. aureus), in words” value (“antimicrobial activities … (S. aureus), in words” for short) in the test on Staphylococcus aureus is “no antimicrobial activity”. Moreover, in the test with Escherichia coli (setting [1]), the “Antimicrobial Activities (MIC) E. coli” value is more than 200 µM. In addition, the “antimicrobial activities against E. coli, in words” value in the test with Escherichia coli (summary of Table 2) is “no antimicrobial activity”.

For `CC(C)[C@H](NC(=O)[C@H](C)NC(=O)[C@@H](NC(=O)[C@H](CCCCN)NC(=O)[C@@H](N)CCCCN)C(C)C)C(=O)N[C@H](C(=O)N[C@@H](CCCNC(=N)N)C(N)=O)C(C)C` [Sample 1, KKVAVVR] (H-KKVAVVR-NH2), the “Antimicrobial Activities (MIC) S. aureus” value in the test on Staphylococcus aureus (24 h) is 50 µM. In the test on Escherichia coli (24 h), the “Antimicrobial Activities (MIC) E. coli” value amounted to 200 µM.

For the compound `CC[C@H](C)[C@H](NC(=O)[C@H](CCC(N)=O)NC(=O)[C@@H](NC(=O)[C@@H](N)CCCCN)C(C)C)C(=O)N[C@H](C(=O)N[C@@H](CC(N)=O)C(=O)N[C@@H](CCCCN)C(=O)N[C@@H](CCCCN)C(N)=O)[C@@H](C)CC` [Sample 2, KVQIINKK] (H-KVQIINKK-NH2; N-terminus assumed), in the test with Staphylococcus aureus (24 h), the “Antimicrobial Activities (MIC) S. aureus” value came to 200 µM. In the test on Escherichia coli (24 h), the “Antimicrobial Activities (MIC) E. coli” value was 200 µM.

Take `CC[C@H](C)[C@H](NC(=O)[C@H](CCC(N)=O)NC(=O)[C@@H](NC(=O)[C@H](CCCNC(=N)N)NC(=O)[C@H](CCC(N)=O)NC(=O)[C@H](CC(C)C)NC(=O)[C@H](CCCCN)NC(=O)[C@H](CCCNC(=N)N)NC(=O)[C@H](CCCCN)NC(=O)[C@@H](N)CC(C)C)C(C)C)C(=O)N[C@H](C(=O)N[C@@H](Cc1ccc(O)cc1)C(=O)N[C@@H](CCCCN)C(N)=O)C(C)C` [Sample 3, LKRKLQRVQIVYK] (H-LKRKLQRVQIVYK-NH2): in the test with Staphylococcus aureus (24 h), the “Antimicrobial Activities (MIC) S. aureus” value turned out to be 3.13 µM. The “antimicrobial activities … (S. aureus), in words” value in the test with Staphylococcus aureus was “particularly high antimicrobial activities”. Moreover, the “Antimicrobial Activities (MIC) E. coli” value in the test on Escherichia coli (24 h) stood at 6.25 µM.

On to `CC[C@H](C)[C@H](NC(=O)[C@H](CCC(N)=O)NC(=O)[C@@H](NC(=O)[C@H](CCCNC(=N)N)NC(=O)[C@H](CCC(N)=O)NC(=O)[C@H](CC(C)C)NC(=O)[C@H](CCCCN)NC(=O)[C@H](CCCNC(=N)N)NC(=O)[C@H](CCCCN)NC(=O)[C@@H](N)CC(C)C)C(C)C)C(=O)N[C@H](C(=O)N[C@@H](CC(N)=O)C(=O)N[C@@H](CCCCN)C(N)=O)[C@@H](C)CC` [Sample 4, LKRKLQRVQIINK] (H-LKRKLQRVQIINK-NH2), for which, in the test on Staphylococcus aureus (24 h), the “Antimicrobial Activities (MIC) S. aureus” value amounted to 6.25 µM. Further, in the test with Staphylococcus aureus, the “antimicrobial activities … (S. aureus), in words” value was “particularly high antimicrobial activities”. For the same compound, in the test on Escherichia coli (24 h), the “Antimicrobial Activities (MIC) E. coli” value is 100 µM.

Take `CC(C)[C@H](NC(=O)[C@H](C)NC(=O)[C@@H](NC(=O)[C@H](CCCCN)NC(=O)[C@H](CCCCN)NC(=O)[C@H](CCCNC(=N)N)NC(=O)[C@@H](NC(=O)[C@@H](NC(=O)[C@H](C)NC(=O)[C@@H](NC(=O)[C@H](CCCCN)NC(=O)[C@@H](N)CCCCN)C(C)C)C(C)C)C(C)C)C(C)C)C(=O)N[C@H](C(=O)N[C@@H](CCCNC(=N)N)C(N)=O)C(C)C` [Sample 5, KKVAVVRKKVAVVR] (H-KKVAVVRKKVAVVR-NH2): the “Antimicrobial Activities (MIC) S. aureus” value in the test with Staphylococcus aureus (24 h) stood at 12.5 µM. Also, the “antimicrobial activities … (S. aureus), in words” value in the test with Staphylococcus aureus is on record as “particularly high antimicrobial activities”. In addition, the “Antimicrobial Activities (MIC) E. coli” value in the test on Escherichia coli (24 h) worked out at 100 µM.

Regarding `CC[C@H](C)[C@H](NC(=O)[C@H](CCC(N)=O)NC(=O)[C@@H](NC(=O)[C@H](CCCCN)NC(=O)[C@H](CCCCN)NC(=O)[C@H](CCCCN)NC(=O)[C@H](CC(N)=O)NC(=O)[C@@H](NC(=O)[C@@H](NC(=O)[C@H](CCC(N)=O)NC(=O)[C@@H](NC(=O)[C@@H](N)CCCCN)C(C)C)[C@@H](C)CC)[C@@H](C)CC)C(C)C)C(=O)N[C@H](C(=O)N[C@@H](CC(N)=O)C(=O)N[C@@H](CCCCN)C(=O)N[C@@H](CCCCN)C(N)=O)[C@@H](C)CC` [Sample 6, KVQIINKKKVQIINKK] (H-KVQIINKKKVQIINKK-NH2), the “Antimicrobial Activities (MIC) S. aureus” value in the test with Staphylococcus aureus (24 h) was found to be 1.56 µM. Besides, the “antimicrobial activities … (S. aureus), in words” value in the test with Staphylococcus aureus is on record as “particularly high antimicrobial activities”. Also, the “Antimicrobial Activities (MIC) E. coli” value with Escherichia coli (24 h) turned out to be 6.25 µM.

In the case of `CC(C)[C@H](NC(=O)[C@H](C)NC(=O)[C@@H](NC(=O)[C@H](CCCCN)NC(=O)[C@H](CCCCN)NC(=O)[C@@H](NC(=O)[C@H](CCCCN)NC(=O)[C@H](CCCNC(=N)N)NC(=O)[C@H](CCCCN)NC(=O)[C@H](CCCCN)NC(=O)[C@H](CCCCN)NC(=O)[C@@H](N)CCCNC(=N)N)C(C)C)C(C)C)C(=O)N[C@H](C(=O)N[C@@H](CCCNC(=N)N)C(N)=O)C(C)C` [Sample 7, RKKKRKVKKVAVVR] (H-RKKKRKVKKVAVVR-NH2), in the test on Staphylococcus aureus (24 h), the “Antimicrobial Activities (MIC) S. aureus” value turned out to be 3.13 µM. In addition, the “antimicrobial activities … (S. aureus), in words” value in the test with Staphylococcus aureus is “particularly high antimicrobial activities”. Also, in the test on Escherichia coli (24 h), the “Antimicrobial Activities (MIC) E. coli” value worked out at 6.25 µM.

Turning to `CC(C)[C@H](NC(=O)[C@H](C)NC(=O)[C@@H](NC(=O)[C@H](CCCCN)NC(=O)[C@H](CCCCN)NC(=O)[C@@H](NC(=O)[C@H](CCCNC(=N)N)NC(=O)[C@@H](NC(=O)[C@@H](NC(=O)[C@H](C)NC(=O)[C@@H](NC(=O)[C@H](CCCCN)NC(=O)[C@@H](N)CCCCN)C(C)C)C(C)C)C(C)C)[C@@H](C)O)C(C)C)C(=O)N[C@H](C(=O)N[C@@H](CCCNC(=N)N)C(=O)N[C@H](C(N)=O)[C@@H](C)O)C(C)C` [Sample 8, KKVAVVRTKKVAVVRT] (H-KKVAVVRTKKVAVVRT-NH2), the “Antimicrobial Activities (MIC) S. aureus” value with Staphylococcus aureus (24 h) stood at 6.25 µM. Moreover, the “antimicrobial activities … (S. aureus), in words” value in the test with Staphylococcus aureus is listed as “particularly high antimicrobial activities”. Also, the “Antimicrobial Activities (MIC) E. coli” value with Escherichia coli (24 h) worked out at 50 µM.

`CC[C@H](C)[C@H](NC(=O)[C@H](CCC(N)=O)NC(=O)[C@@H](NC(=O)[C@@H](N)CCCCN)C(C)C)C(=O)N[C@H](C(=O)N[C@@H](CC(N)=O)C(=O)N[C@@H](CCCCN)C(=O)N[C@@H](CCCCN)C(=O)N[C@@H](CC(C)C)C(=O)N[C@@H](CC(=O)O)C(=O)N[C@H](C(=O)N[C@@H](CO)C(=O)N[C@@H](CC(N)=O)C(=O)N[C@@H](CC(C)C)C(=O)N[C@@H](CCSC)C(=O)N[C@@H](Cc1c[nH]c2ccccc12)C(=O)N[C@@H](Cc1c[nH]c2ccccc12)C(=O)N[C@@H](CC(C)C)C(=O)N[C@@H](CC(C)C)C(N)=O)C(C)C)[C@@H](C)CC` [Sample 11, KVQIINKKLDVSNLMWWLL] (H-KVQIINKKLDVSNLMWWLL-NH2): the “Antimicrobial Activities (MIC) S. aureus” value in the test with Staphylococcus aureus (24 h) was determined as 12.5 µM. In addition, the “antimicrobial activities … (S. aureus), in words” value in the test on Staphylococcus aureus is reported as “particularly high antimicrobial activities”. The “Antimicrobial Activities (MIC) E. coli” value in the test on Escherichia coli (24 h) is 25 µM.

For the compound `CC[C@H](C)[C@H](NC(=O)[C@H](CCC(N)=O)NC(=O)[C@@H](NC(=O)[C@@H](N)CCCCN)C(C)C)C(=O)N[C@H](C(=O)N[C@@H](CC(N)=O)C(=O)N[C@@H](CCCCN)C(=O)N[C@@H](CCCCN)C(=O)N[C@@H](CC(C)C)C(=O)N[C@@H](CCSC)C(=O)N[C@@H](Cc1c[nH]c2ccccc12)C(=O)N[C@@H](Cc1c[nH]c2ccccc12)C(=O)N[C@@H](CC(C)C)C(=O)N[C@@H](CC(C)C)C(N)=O)[C@@H](C)CC` [Sample 12, KVQIINKKLMWWLL] (H-KVQIINKKLMWWLL-NH2), the “Antimicrobial Activities (MIC) S. aureus” value in the test with Staphylococcus aureus (24 h) amounted to 3.13 µM. Further, the “antimicrobial activities … (S. aureus), in words” value with Staphylococcus aureus is “particularly high antimicrobial activities”. The “Antimicrobial Activities (MIC) E. coli” value in the test on Escherichia coli (24 h) amounted to 12.5 µM.

Regarding `CC[C@H](C)[C@H](NC(=O)[C@H](CCC(N)=O)NC(=O)[C@@H](NC(=O)[C@H](CCCCN)NC(=O)[C@@H](NC(=O)[C@@H](NC(=O)[C@@H](NC(=O)[C@H](CCCNC(=N)N)NC(=O)[C@H](CCCCN)NC(=O)[C@H](CCCCN)NC(=O)[C@H](CCCNC(=N)N)NC(=O)[C@@H]1CCCN1C(=O)[C@@H]1CCCN1)[C@@H](C)O)C(C)C)C(C)C)C(C)C)C(=O)N[C@H](C(=O)N[C@@H](CC(N)=O)C(=O)N[C@@H](CCCCN)C(=O)N[C@@H](CCCCN)C(N)=O)[C@@H](C)CC` [Sample 13, PPRKKRTVVKVQIINKK] (H-PPRKKRTVVKVQIINKK-NH2), the “Antimicrobial Activities (MIC) S. aureus” value in the test with Staphylococcus aureus (setting [1]) was 0.78 µM. Further, the “antimicrobial activities … (S. aureus), in words” value in the test with Staphylococcus aureus is recorded as “particularly high antimicrobial activities”. For the same compound, the “Antimicrobial Activities (MIC) E. coli” value with Escherichia coli (setting [1]) came to 3.13 µM.

`CC[C@H](C)[C@H](NC(=O)[C@H](CCC(N)=O)NC(=O)[C@@H](NC(=O)[C@H](CCCCN)NC(=O)[C@H](Cc1ccc(O)cc1)NC(=O)[C@@H](NC(=O)[C@@H](NC(=O)[C@H](CCC(N)=O)NC(=O)[C@@H](N)C(C)C)[C@@H](C)CC)C(C)C)C(C)C)C(=O)N[C@H](C(=O)N[C@@H](Cc1ccc(O)cc1)C(=O)N[C@@H](CCCCN)C(N)=O)C(C)C` [Sample 14, VQIVYKVQIVYK] (H-VQIVYKVQIVYK-NH2): the “Antimicrobial Activities (MIC) S. aureus” value in the test with Staphylococcus aureus (24 h) came out at 25 µM. Also, in the test on Staphylococcus aureus, the “antimicrobial activities … (S. aureus), in words” value is reported as “particularly high antimicrobial activities”. Further, the “Antimicrobial Activities (MIC) E. coli” value in the test on Escherichia coli (24 h) came to 50 µM.
